Legend:
[1] = test system: Truncated N-terminal huntington 150 Q-EGFP-Neuron 2a cells; assay: Measurement of x-Fold (polyglutamine aggregation inhibitory activity); type: cell-based
Experimental: In the present invention, the polyglutamine aggregation inhibitory activity (x-Fold) can be measured, for example, by the method described in the Example.
The number of the aggregated cells, and the total number of cells were counted by Array Scan V T1 (manufactured by Cellomics, Pittuburg, USA), and the ratio of the aggregated cells to the total number of cells was determined (x-Fold). […]

transglutaminase (TGase) = assay: Measurement of TG (TGase inhibitory activity, monodansyl cadaverine / N,N-dimethylcasein fluorescence, FDSS 3000); type: biochemical
Outline: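 Compound (1 μL of 10 mM stock) added to 0.1 mL reaction: 100 mM HEPES-NaOH pH 7.5, 1 mM CaCl2, 20 μM monodansyl cadaverine, 0.05 mg/mL N,N-dimethylcasein, 5 μg/mL TGase. Rate of fluorescence change at 340 nm measured; DMSO control set to 100; TG50 is the concentration halving activity.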

[2] = polyglutamine aggregation, Truncated N-terminal huntington 150 Q-EGFP-Neuron 2a cells
[3] = ratio of aggregated cells to total number of cells, compound 20 μM, 20 hr, almost 1 without compound, smaller = stronger inhibition
[4] = TGase activity with compound (10 mM, 1 μL in 0.1 ml enzyme reaction solution), DMSO control taken as 100
[5] = TGase inhibitory activity measurement, unit not given
[6] = polyglutamine aggregation inhibitory activity, Table 1
[7] = TGase inhibitory activity value, Table 1

COc1ccc(B(OC(=O)C(N)CCN)c2ccc(COCc3ccc(B(OC(=O)C(N)CCN)c4ccc(OC)cc4)cc3)cc2)cc1 (centres unmarked) [Example 415, bis(4,4′-(p-methoxyphenyl-2,4-diaminobutyric acid boryl)benzyl)ether]
x-Fold [1, 2]: 0.90
x-Fold [1, 3]: 0.90
TGase activity remaining (% of DMSO control = 100) (transglutaminase (TGase); [4]): 130
TGase activity remaining (% of DMSO control = 100) (transglutaminase (TGase); [5]): 130

NCCOB(c1ccc(COCc2ccc(B(OCCN)c3ccc(F)c(F)c3)cc2)cc1)c1ccc(F)c(F)c1 [Example 416, bis(4,4′-(3,4-difluorophenyl-aminoethoxyboryl)benzyl)ether]
x-Fold [1, 2]: 0.92
x-Fold [1, 3]: 0.92
TGase activity remaining (% of DMSO control = 100) (transglutaminase (TGase); [4]): 114
TGase activity remaining (% of DMSO control = 100) (transglutaminase (TGase); [5]): 114

CNCCOB(c1ccc(COCc2ccc(B(OCCNC)c3ccc(F)c(F)c3)cc2)cc1)c1ccc(F)c(F)c1 [Example 417, bis(4,4′-(3,4-difluorophenyl-N-methylaminoethoxyboryl)benzyl)ether]
x-Fold [1, 2]: 1.01
x-Fold [1, 3]: 1.01
TGase activity remaining (% of DMSO control = 100) (transglutaminase (TGase); [4]): 91
TGase activity remaining (% of DMSO control = 100) (transglutaminase (TGase); [5]): 91

CN(C)CCOB(c1ccc(COCc2ccc(B(OCCN(C)C)c3ccc(F)c(F)c3)cc2)cc1)c1ccc(F)c(F)c1 [Example 418, bis(4,4′-(3,4-difluorophenyl-N,N-dimethylaminoethoxyboryl)benzyl)ether]
x-Fold [1, 2]: 1.02
x-Fold [1, 3]: 1.02
TGase activity remaining (% of DMSO control = 100) (transglutaminase (TGase); [4]): 45
TGase activity remaining (% of DMSO control = 100) (transglutaminase (TGase); [5]): 45

NCCNCCOB(c1ccc(COCc2ccc(B(OCCNCCN)c3ccc(F)c(F)c3)cc2)cc1)c1ccc(F)c(F)c1 [Example 419, bis(4,4′-(3,4-difluorophenyl-N-aminoethylaminoethoxyboryl)benzyl)ether]
x-Fold [1, 6]: 1.02
x-Fold [1, 2]: 0.90
x-Fold [1, 3]: 0.90
TGase activity remaining (% of DMSO control = 100) (transglutaminase (TGase); [4]): 140
TGase activity remaining (% of DMSO control = 100) (transglutaminase (TGase); [5]): 140
TGase activity remaining (% of DMSO control = 100) (transglutaminase (TGase); [7]): 108

COc1ccc(C(OB(c2ccccc2)c2ccc(COc3ccc(B(OC(c4ccc(OC)cc4)c4ccccn4)c4ccccc4)cc3)cc2)c2ccccn2)cc1 (centres unmarked) [Example 430, 4-(phenyl-p-methoxyphenyl-2-pyridylmethoxyboryl)-phenyl 4′-(phenyl-p-methoxyphenyl-2-pyridylmethoxyboryl)benzylether]
x-Fold [1, 2]: 1.03
x-Fold [1, 3]: 1.03
TGase activity remaining (% of DMSO control = 100) (transglutaminase (TGase); [4]): 106
TGase activity remaining (% of DMSO control = 100) (transglutaminase (TGase); [5]): 106

c1ccc(B(OC2CCCNC2)c2ccc(Oc3ccc(B(OC4CCCNC4)c4ccccc4)cc3)cc2)cc1 (centres unmarked) [Example 431, bis(4,4′-(phenyl-3-piperidyloxyboryl)phenyl)ether]
x-Fold [1, 6]: 0.57
x-Fold [1, 3]: 1.02
TGase activity remaining (% of DMSO control = 100) (transglutaminase (TGase); [4]): 118

NCC(N)C(=O)OB(c1ccccc1)c1ccc(Oc2ccc(B(OC(=O)C(N)CN)c3ccccc3)cc2)cc1 (centres unmarked) [Example 436, bis(4,4′-(phenyl-2,3-diaminopropionic acid boryl)phenyl)ether]
x-Fold [1, 6]: 0.73
x-Fold [1, 2]: 0.85
x-Fold [1, 3]: 0.85
TGase activity remaining (% of DMSO control = 100) (transglutaminase (TGase); [4]): 104
TGase activity remaining (% of DMSO control = 100) (transglutaminase (TGase); [5]): 104

NCCCCC(N)C(=O)OB(c1ccccc1)c1ccc(Oc2ccc(B(OC(=O)C(N)CCCCN)c3ccccc3)cc2)cc1 (centres unmarked) [Example 437, bis(4,4′-(phenyl-lysineboryl)phenyl)ether]
x-Fold [1, 2]: 0.85
x-Fold [1, 3]: 0.85
TGase activity remaining (% of DMSO control = 100) (transglutaminase (TGase); [4]): 119
TGase activity remaining (% of DMSO control = 100) (transglutaminase (TGase); [5]): 119

OB(c1ccc(Oc2ccc(B(O)c3cccc4ccccc34)cc2)cc1)c1cccc2ccccc12 [Example 439, bis(4,4′-(naphthylhydroxyboryl)phenyl)ether]
x-Fold [1, 2]: 0.54
x-Fold [1, 3]: 0.54
TGase activity remaining (% of DMSO control = 100) (transglutaminase (TGase); [4]): 33
TGase activity remaining (% of DMSO control = 100) (transglutaminase (TGase); [5]): 33

Cc1ccc(B(O)c2ccc(Oc3ccc(B(O)c4ccc(C)cc4)cc3)cc2)cc1 [Example 440, bis(4,4′-(tolylhydroxyboryl)phenyl)ether]
x-Fold [1, 2]: 0.69
x-Fold [1, 3]: 0.69
TGase activity remaining (% of DMSO control = 100) (transglutaminase (TGase); [4]): 63
TGase activity remaining (% of DMSO control = 100) (transglutaminase (TGase); [5]): 63

NCCOB(c1ccc(Oc2ccc(B(OCCN)c3cccc4ccccc34)cc2)cc1)c1cccc2ccccc12 [Example 441, bis(4,4′-(naphthyl-aminoethoxyboryl)phenyl)ether]
x-Fold [1, 2]: 0.58
x-Fold [1, 3]: 0.58
TGase activity remaining (% of DMSO control = 100) (transglutaminase (TGase); [4]): −1
TGase activity remaining (% of DMSO control = 100) (transglutaminase (TGase); [5]): −1

CN(C)CCOB(c1ccc(Oc2ccc(B(OCCN(C)C)c3cccc4ccccc34)cc2)cc1)c1cccc2ccccc12 [Example 442, bis(4,4′-(naphthyldimethylaminoethoxyboryl)phenyl)ether]
x-Fold [1, 6]: 0.92
x-Fold [1, 2]: 0.58
x-Fold [1, 3]: 0.58
TGase activity remaining (% of DMSO control = 100) (transglutaminase (TGase); [4]): 102
TGase activity remaining (% of DMSO control = 100) (transglutaminase (TGase); [5]): 102

NCCC(N)C(=O)OB(c1ccc(Oc2ccc(B(OC(=O)C(N)CCN)c3cccc4ccccc34)cc2)cc1)c1cccc2ccccc12 (centres unmarked) [Example 445, bis(4,4′-(naphthyl 2,4-diaminopropionic acid boryl)phenyl)ether]
x-Fold [1, 2]: 0.49
x-Fold [1, 3]: 0.49
TGase activity remaining (% of DMSO control = 100) (transglutaminase (TGase); [4]): 108
TGase activity remaining (% of DMSO control = 100) (transglutaminase (TGase); [5]): 108

Cc1ccc(B(OCCN(C)C)c2ccc(Oc3ccc(B(OCCN(C)C)c4ccc(C)cc4)cc3)cc2)cc1 [Example 446, bis(4,4′-(tolyldimethylaminoethoxyboryl)phenyl)ether]
x-Fold [1, 2]: 0.85
x-Fold [1, 3]: 0.85
TGase activity remaining (% of DMSO control = 100) (transglutaminase (TGase); [4]): 73
TGase activity remaining (% of DMSO control = 100) (transglutaminase (TGase); [5]): 73

Cc1ccc(B(OCCN2CCCCC2)c2ccc(Oc3ccc(B(OCCN4CCCCC4)c4ccc(C)cc4)cc3)cc2)cc1 [Example 447, bis(4,4′-(tolylpiperadylethoxyboryl)phenyl)ether]
x-Fold [1, 2]: 0.49
x-Fold [1, 3]: 0.49
TGase activity remaining (% of DMSO control = 100) (transglutaminase (TGase); [4]): 97
TGase activity remaining (% of DMSO control = 100) (transglutaminase (TGase); [5]): 97

Cc1ccc(B(OC(=O)C(N)CC(N)=O)c2ccc(COCc3ccc(B(OC(=O)C(N)CC(N)=O)c4ccc(C)cc4)cc3)cc2)cc1 (centres unmarked) [Example 449, bis(4,4′-(tolylasparagineboryl)benzyl)ether]
x-Fold [1, 2]: 0.89
x-Fold [1, 3]: 0.89
TGase activity remaining (% of DMSO control = 100) (transglutaminase (TGase); [4]): 92
TGase activity remaining (% of DMSO control = 100) (transglutaminase (TGase); [5]): 92

Cc1ccc(B(OC(=O)C(N)CCCCN)c2ccc(Oc3ccc(B(OC(=O)C(N)CCCCN)c4ccc(C)cc4)cc3)cc2)cc1 (centres unmarked) [Example 450, bis(4,4′-(tolyllysineboryl)phenyl)ether]
x-Fold [1, 2]: 0.49
x-Fold [1, 3]: 0.49
TGase activity remaining (% of DMSO control = 100) (transglutaminase (TGase); [4]): 53
TGase activity remaining (% of DMSO control = 100) (transglutaminase (TGase); [5]): 53

NCCC(N)C(=O)OB(c1ccccc1)c1ccc(COCc2ccc(B(OC(=O)C(N)CCN)c3ccccc3)cc2)cc1 (centres unmarked) [Example 453, bis(4,4′-(phenyl-2,4-diaminobutyrateboryl)benzyl)ether]
x-Fold [1, 2]: 1.04
x-Fold [1, 3]: 1.04
TGase activity remaining (% of DMSO control = 100) (transglutaminase (TGase); [4]): 113
TGase activity remaining (% of DMSO control = 100) (transglutaminase (TGase); [5]): 113

c1ccc(B(OCCN2CCCCC2)c2ccc(COCc3ccc(B(OCCN4CCCCC4)c4ccccc4)cc3)cc2)cc1 [Example 459, bis(4,4′-(phenyl-1-piperidylethoxyboryl)benzyl)ether]
x-Fold [1, 2]: 1.03
x-Fold [1, 3]: 1.03
TGase activity remaining (% of DMSO control = 100) (transglutaminase (TGase); [4]): 80
TGase activity remaining (% of DMSO control = 100) (transglutaminase (TGase); [5]): 80

c1ccc(B(OCCN2CCCCC2)c2cccc(COCc3cccc(B(OCCN4CCCCC4)c4ccccc4)c3)c2)cc1 [Example 466, bis(3,3′-(phenyl-1-piperidylethoxyboryl)benzyl)ether]
x-Fold [1, 2]: 1.04
x-Fold [1, 3]: 1.04
TGase activity remaining (% of DMSO control = 100) (transglutaminase (TGase); [4]): 71
TGase activity remaining (% of DMSO control = 100) (transglutaminase (TGase); [5]): 71

Cc1ccc2cccc(OB(c3ccccc3)c3ccc(Oc4ccc(B(Oc5cccc6ccc(C)nc56)c5ccccc5)cc4)cc3)c2n1 [Example 477, bis(4,4′-(phenyl-2-methyl-8-quinolinooxyboryl)phenyl)ether]
x-Fold [1, 2]: 1.02
x-Fold [1, 3]: 1.02
TGase activity remaining (% of DMSO control = 100) (transglutaminase (TGase); [4]): 97
TGase activity remaining (% of DMSO control = 100) (transglutaminase (TGase); [5]): 97

c1ccc(B(OCC2CCCN2)c2ccc3sc4ccc(B(OCC5CCCN5)c5ccccc5)cc4c3c2)cc1 (centres unmarked) [Example 483, 2,8-di(phenyl 2-pyrrolidinomethoxyboryl)dibenzothiophene]
x-Fold [1, 2]: 0.73
x-Fold [1, 3]: 0.73
TGase activity remaining (% of DMSO control = 100) (transglutaminase (TGase); [4]): 107
TGase activity remaining (% of DMSO control = 100) (transglutaminase (TGase); [5]): 107

NCCOB(c1ccsc1)c1ccc2sc3ccc(B(OCCN)c4ccsc4)cc3c2c1 [Example 485, 2,8-di(3-thiophenylaminoethoxyboryl)dibenzothiophene]
x-Fold [1, 2]: 0.98
x-Fold [1, 3]: 0.98
TGase activity remaining (% of DMSO control = 100) (transglutaminase (TGase); [4]): 76
TGase activity remaining (% of DMSO control = 100) (transglutaminase (TGase); [5]): 76

CCCCB(CCCC)OC(=O)C(N)Cc1ccccc1 (centres unmarked) [Example 493, dibutyl(phenylalanine-O,N)borane]
x-Fold [1, 2]: 1.03
x-Fold [1, 3]: 1.03
TGase activity remaining (% of DMSO control = 100) (transglutaminase (TGase); [4]): 106
TGase activity remaining (% of DMSO control = 100) (transglutaminase (TGase); [5]): 106

FITC aminoethylaminoethyl diphenylborinate [Example 161]
x-Fold [1, 6]: 0.99
x-Fold [1, 3]: 0.99
TGase activity remaining (% of DMSO control = 100) (transglutaminase (TGase); [4]): 6
TGase activity remaining (% of DMSO control = 100) (transglutaminase (TGase); [7]): 6

— patent US8853424B2 (Japan Science and Technology Agency, priority 2008, dated 2014)
